Laboratory results as given in PubChem BioAssay AID248 (DTP/NCI, 2004).
“And” between values parts separate entries of the source, which are not always exact repeats. Equal values may be shown once. Toxic doses and inconclusive results are not listed. Rule as the data show it: active = T/C of 150% or more; inactive = T/C below 125%.

Test system: L1210 leukemia ip in BDF1 mice, survival T/C
Experiment: NCI In Vivo Anticancer Drug Screen. Data for tumor model L1210 Leukemia (intraperitoneal) in B6D2F1 (BDF1) mice
Conditions: endpoint: mean survival time, higher = longer survival
Method in brief: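 Transplantable tumor model; survival measured in treated vs vehicle control mice. Value = treated/control.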

[1] = dose: 12.5 mg/kg/injection, schedule: Q01DX009 (ip), vehicle: saline
[2] = dose: 25.0 mg/kg/injection, schedule: Q01DX009 (ip), vehicle: saline
[3] = dose: 25.0 mg/kg/injection, schedule: Q04DX003 (ip), vehicle: saline
[4] = dose: 100.0 mg/kg/injection, schedule: Q04DX003 (ip), vehicle: Klucel (hydroxypropylcellulose) (HPC)
[5] = dose: 100.0 mg/kg/injection, schedule: Q01DX009 (ip), vehicle: Klucel (hydroxypropylcellulose) (HPC)
[6] = dose: 200.0 mg/kg/injection, schedule: Q01DX009 (ip), vehicle: Klucel (hydroxypropylcellulose) (HPC)
[7] = dose: 400.0 mg/kg/injection, schedule: Q01DX009 (ip), vehicle: Klucel (hydroxypropylcellulose) (HPC)
[8] = dose: 50.0 mg/kg/injection, schedule: Q04DX002 (ip), vehicle: Klucel (hydroxypropylcellulose) (HPC)
[9] = dose: 100.0 mg/kg/injection, schedule: Q04DX002 (ip), vehicle: Klucel (hydroxypropylcellulose) (HPC)
[10] = dose: 100.0 mg/kg/injection, schedule: Q01DX001 (ip), vehicle: carboxymethylcellulose (CMC)
[11] = dose: 200.0 mg/kg/injection, schedule: Q01DX001 (ip), vehicle: carboxymethylcellulose (CMC)
[12] = dose: 400.0 mg/kg/injection, schedule: Q01DX001 (ip), vehicle: carboxymethylcellulose (CMC)
[13] = dose: 100.0 mg/kg/injection, schedule: Q01DX009 (ip), vehicle: saline with Tween-80
[14] = dose: 200.0 mg/kg/injection, schedule: Q01DX009 (ip), vehicle: saline with Tween-80

Measured: T/C

COc1cc2c(cc1OC)C13CCN4CC5=CCOC6CC(=O)N2C1C6C5CC43 (stereo unspecified) (tested in a mixture with another compound)
inactive: dose: 12.0 mg/kg/injection, schedule: Q01DX001 (ip), vehicle: Klucel (hydroxypropylcellulose) (HPC) 89 % of control | dose: 12.0 mg/kg/injection, schedule: Q01DX009 (ip), vehicle: Klucel (hydroxypropylcellulose) (HPC) 97 % of control | dose: 12.5 mg/kg/injection, schedule: Q01DX001 (ip), vehicle: Klucel (hydroxypropylcellulose) (HPC) 101 % of control | [1] 97 % of control | dose: 25.0 mg/kg/injection, schedule: Q01DX001 (ip), vehicle: Klucel (hydroxypropylcellulose) (HPC) 95 % of control and 93 % of control | dose: 25.0 mg/kg/injection, schedule: Q01DX001 (ip), vehicle: saline with Tween-80 89 % of control | dose: 25.0 mg/kg/injection, schedule: Q01DX009 (ip), vehicle: Klucel (hydroxypropylcellulose) (HPC) 96 % of control | [2] 97 % of control | dose: 25.0 mg/kg/injection, schedule: Q04DX003 (ip), vehicle: Klucel (hydroxypropylcellulose) (HPC) 104 % of control | dose: 25.0 mg/kg/injection, schedule: Q04DX003 (ip), vehicle: saline with Tween-80 94 % of control | [3] 111 % of control | dose: 50.0 mg/kg/injection, schedule: Q01DX001 (ip), vehicle: Klucel (hydroxypropylcellulose) (HPC) 100 % of control and 102 % of control | dose: 50.0 mg/kg/injection, schedule: Q01DX001 (ip), vehicle: saline with Tween-80 96 % of control | dose: 50.0 mg/kg/injection, schedule: Q01DX009 (ip), vehicle: Klucel (hydroxypropylcellulose) (HPC) 91 % of control | dose: 50.0 mg/kg/injection, schedule: Q01DX009 (ip), vehicle: saline 106 % of control | dose: 50.0 mg/kg/injection, schedule: Q04DX003 (ip), vehicle: Klucel (hydroxypropylcellulose) (HPC) 107 % of control | dose: 50.0 mg/kg/injection, schedule: Q04DX003 (ip), vehicle: saline with Tween-80 100 % of control | dose: 50.0 mg/kg/injection, schedule: Q04DX003 (ip), vehicle: saline 107 % of control | dose: 75.0 mg/kg/injection, schedule: Q01DX001 (ip), vehicle: other 95 % of control | dose: 75.0 mg/kg/injection, schedule: Q01DX001 (ip), vehicle: saline 98 % of control and 94 % of control and 107 % of control | dose: 75.0 mg/kg/injection, schedule: Q01DX009 (ip), vehicle: saline 107 % of control | dose: 100.0 mg/kg/injection, schedule: Q01DX001 (ip), vehicle: Klucel (hydroxypropylcellulose) (HPC) 103 % of control | [4] 95 % of control | dose: 100.0 mg/kg/injection, schedule: Q04DX003 (ip), vehicle: saline with Tween-80 89 % of control | dose: 150.0 mg/kg/injection, schedule: Q01DX001 (ip), vehicle: other 86 % of control | dose: 150.0 mg/kg/injection, schedule: Q01DX001 (ip), vehicle: saline 98 % of control | dose: 200.0 mg/kg/injection, schedule: Q04DX003 (ip), vehicle: Klucel (hydroxypropylcellulose) (HPC) 90 % of control | dose: 300.0 mg/kg/injection, schedule: Q01DX001 (ip), vehicle: other 89 % of control

C(=N\N1CCN(/N=C/c2c[nH]c3ccccc23)CC1)/c1c[nH]c2ccccc12
inactive: dose: 100.0 mg/kg/injection, schedule: Q01DX001 (ip), vehicle: saline 94 % of control | dose: 200.0 mg/kg/injection, schedule: Q01DX001 (ip), vehicle: saline 94 % of control | dose: 400.0 mg/kg/injection, schedule: Q01DX001 (ip), vehicle: saline 94 % of control

O=c1[nH]cnc2nc(/N=N/SCCO)[nH]c12
inactive: dose: 44.4 mg/kg/injection, schedule: Q01DX Z (ip), vehicle: methylcellulose (MC) 101 % of control | dose: 66.6 mg/kg/injection, schedule: Q01DX Z (ip), vehicle: methylcellulose (MC) 108 % of control | dose: 100.0 mg/kg/injection, schedule: Q01DX Z (ip), vehicle: methylcellulose (MC) 116 % of control | dose: 150.0 mg/kg/injection, schedule: Q01DX Z (ip), vehicle: methylcellulose (MC) 121 % of control

CCOC(CNC(=O)CC(C)=O)OCC
inactive: dose: 100.0 mg/kg/injection, schedule: Q01DX009 (ip), vehicle: saline 96 % of control | dose: 100.0 mg/kg/injection, schedule: Q04DX003 (ip), vehicle: saline 104 % of control | dose: 200.0 mg/kg/injection, schedule: Q01DX009 (ip), vehicle: saline 104 % of control | dose: 200.0 mg/kg/injection, schedule: Q04DX003 (ip), vehicle: saline 108 % of control | dose: 400.0 mg/kg/injection, schedule: Q01DX009 (ip), vehicle: saline 98 % of control | dose: 400.0 mg/kg/injection, schedule: Q04DX003 (ip), vehicle: saline 103 % of control

NC(=O)c1cc(Cl)ccc1OC(=O)Nc1ccccc1F
inactive: [5] 115 % of control | [6] 102 % of control | [7] 98 % of control

O=C(/C=C/c1ccccc1)OCc1ccccc1CN1C=CON1
inactive: dose: 25.0 mg/kg/injection, schedule: Q04DX002 (ip), vehicle: Klucel (hydroxypropylcellulose) (HPC) 115 % of control | [8] 105 % of control | [9] 105 % of control

CCN(CC)CCCC(C)Nc1c2ccccc2nc2c(Cl)cccc12 (stereo unspecified)
inactive: dose: 20.0 mg/kg/injection, schedule: Q01DX Z (ip), vehicle: methylcellulose (MC) 100 % of control and 86 % of control | dose: 30.0 mg/kg/injection, schedule: Q01DX Z (ip), vehicle: methylcellulose (MC) 92 % of control and 87 % of control | dose: 45.0 mg/kg/injection, schedule: Q01DX Z (ip), vehicle: methylcellulose (MC) 95 % of control and 101 % of control | dose: 67.0 mg/kg/injection, schedule: Q01DX Z (ip), vehicle: methylcellulose (MC) 91 % of control | [4] 102 % of control

NC(=O)COc1ccc(F)cc1F
inactive: dose: 100.0 mg/kg/injection, schedule: Q04DX002 (ip), vehicle: saline with Tween-80 101 % of control | dose: 200.0 mg/kg/injection, schedule: Q04DX002 (ip), vehicle: saline with Tween-80 97 % of control | dose: 400.0 mg/kg/injection, schedule: Q04DX002 (ip), vehicle: saline with Tween-80 93 % of control

S=C(N/N=C\c1ccc2c(c1)OCO2)Nc1ccc2cn[nH]c2c1
inactive: dose: 50.0 mg/kg/injection, schedule: Q01DX001 (ip), vehicle: carboxymethylcellulose (CMC) 97 % of control | [10] 100 % of control | [11] 91 % of control

O=C(O)CCSC(=S)Nc1ccccc1O
inactive: [10] 103 % of control | [11] 93 % of control | [12] 98 % of control

CCOC(=O)NC(CCN(C)C)(c1cccc2ccccc12)C(C)C (stereo unspecified)
inactive: [8] 100 % of control | [5] 101 % of control | [9] 100 % of control

COC(OC)/C(C)=N/NC(N)=O
inactive: [10] 88 % of control | [11] 116 % of control | [12] 108 % of control

CC(=O)Nc1ccc(/C=N/Nc2c([N+](=O)[O-])cc(C(F)(F)F)cc2[N+](=O)[O-])cc1
inactive: [13] 100 % of control | [14] 96 % of control

C[n+]1c(-c2ccc(Cl)cc2Cl)c2cc([N+](=O)[O-])ccc2c2ccccc21
inactive: dose: 12.5 mg/kg/injection, schedule: Q01DX009 (ip), vehicle: water 113 % of control | dose: 25.0 mg/kg/injection, schedule: Q01DX009 (ip), vehicle: water 113 % of control | dose: 25.0 mg/kg/injection, schedule: Q04DX003 (ip), vehicle: water 108 % of control | dose: 50.0 mg/kg/injection, schedule: Q01DX009 (ip), vehicle: water 101 % of control | dose: 100.0 mg/kg/injection, schedule: Q04DX003 (ip), vehicle: water 95 % of control

CCOC(=O)C(O)(CC)CCC(C)C (stereo unspecified)
inactive: dose: 50.0 mg/kg/injection, schedule: Q01DX009 (ip), vehicle: saline with Tween-80 101 % of control | [13] 101 % of control | [14] 111 % of control

[Cl][Ni].[NH-]C(Cc1ccccc1)C(=O)O (stereo unspecified)
inactive: dose: 6.25 mg/kg/injection, schedule: Q04DX003 (ip), vehicle: saline 98 % of control | dose: 12.5 mg/kg/injection, schedule: Q04DX003 (ip), vehicle: saline 98 % of control | [3] 91 % of control

O=C(Nc1cc(C(F)(F)F)ccc1Cl)n1cccc1
inactive: [5] 113 % of control | [6] 113 % of control | [7] 106 % of control

CN(C)/N=C/c1cccc[n+]1C
inactive: dose: 6.25 mg/kg/injection, schedule: Q01DX009 (ip), vehicle: saline 102 % of control | [1] 106 % of control | [2] 115 % of control
